pEC50: −log10 of the molar value.
test system: THP-1 cells; assay: Lamp1 lysosomal exocytosis assay; type: cell-based; conditions: Homo sapiens, 55 min, 55 min incubation, top dose 20 μM
Description: For the Lamp1 lysosomal exocytosis assay, a human monocytic suspension cell line (THP-1) was used. Cells in culture should be used between a density of […] and 1.2e6/mL on the day of the assay. For each 96-well assay plate to be used, pellet 11e6 THP-1 cells at 330×g for 5 min in a 50 mL conical tube, aspirate media and resuspend in 22 mLs of RPMI 1640/10% FBS media for a final cell concentration of 5e5/mL. Prior to addition of cells to the assay plate, perform a 7 pt dilution curve using a top dose of compound at 2 mM and use a 3-fold serial dilution, the 8th point is DMSO only. Final top dose of compound in the assay was 20 μM. 2 μL of each serial dilution was transferred to a new 96-well v-bottom assay plate. 198 μL of cells (1e5 total cells/well) was prepared as above in each well of the assay plate and incubated at 37° C./5% CO2/95% RH for 55 min. After the 55 min incubation, cells were pelleted for 5 min at 4 C at 400×g in a tabletop centrifuge. The media was separated from the cell pellets in the plate. The pellets were washed using 200 μL ice cold buffer (PBS Ca^++/Mg^++ containing 2% final BSA and 80 μM final Dynasore). Cells were pelleted again at 400×g-5 min in a 4° C. tabletop centrifuge. Buffer was separated from cells. Each well was suspended in 75 uL Lamp1-PE antibody buffer (PBS Ca^++/Mg^++ containing 2% final BSA with 80 uM final Dynasore and 1:800 final dilution of Lamp 1-PE labeled antibody). After a 45 min antibody incubation on ice, 25 μL of sytox green was added (I drop/mL buffer), and each well was mixed and incubated for an additional 15 min on ice. After the 15 min sytox green incubation, 100 μL of ice-cold buffer (PBS Ca^++/Mg^++ containing 2% final BSA and 80 uM final Dynasore) was added and cells were pelleted for 5 min at 400×g. The buffer was removed and each sample was resuspended in 100 uL of ice-cold buffer (PBS Ca^++/Mg^++ containing 2% final BSA and 80 μM final Dynasore). FACs gating strategy: FACS analyze for sytox green (A488) and Lamp1-PE (DsRed). First gate against FSC-A/SSC-A to find non-fragmented or ‘live’ THP-1 cells. Next gate against FITC-A/FSC-A to omit sytox green positive cells. Then gate for FSC-A/FSC-H to remove any doublet cells. The last gate was a histogram for PE. The statistics for ‘count’ and ‘geometric mean fluorescence intensity’ (gWFI) for PE were repoted on the last gate.
Compounds having an activity designated as “++++” provided an exocytosis readout of ≤0.50 μM; compounds having an activity designated as “+++” provided an exocytosis readout of 0.51-1.00 μM; compounds having an activity designated as “++” provided an exocytosis readout of 1.01-5.00 μM; and compounds having an activity designated as “+” provided an exocytosis readout of ≥5.01 μM

| pEC50 | SMILES |
| --- | --- |
| 6.00 to 6.29 | CCn1cc(COC(=O)N2CCC3(CC2)CN(S(=O)(=O)c2ccc(C(F)F)cc2)c2ccccc23)cn1 [Compound I-171] |
| ≤ 5.30 | O=C(NCC1CCOC1)N1CCC2(CC1)CN(S(=O)(=O)c1ccc(C(F)F)cc1)c1ccccc12 (centres unmarked) [Compound I-204] |

test system: TFEB; assay: TFEB nuclear translocation assay; type: cell-based; conditions: Homo sapiens; HeLa wt or HeLa TRPML1 KO cells, treated for 2 hrs; ratio of nuclear to ring-region TFEB intensity
Description: For the TFEB nuclear translocation assay, HeLa wt or HeLa TRPML1 KO cells were plated at 2700 cells/well into black-walled, 384-well Cell carrier Ultra tissue culture treated plates in complete media and incubated overnight. The next day, cells are treated for 2 hrs with compounds and incubated at 37° C. Cells were then fixed for 30 minutes at room temperature in 4% final PFA and washed five times with 90 μL PBS. PBS is aspirated from the wells and the cells are blocked with 7.5 μL blocking buffer (1.1 PBS/Odyssey block buffer containing 0.1% triton x-100 and 1% goat serum). After 30-60 minutes of block, 7.5 μL of primary anti-TFEB (rabbit) antibody is added for a final dilution of 1:200 antibody in 15 μL blocking buffer. Plates are incubated overnight at 4° C. The following day, plates are washed again into PBS, 90 μL with 5 washes, all PBS is aspirated from the wells and the cells are incubated for 1 hr in 1:1000 goat-anti rabbit Alexa 488 secondary antibody, also containing 10 μg/mL Hoechst 33342. After the 1 hr RT incubation, plates are washed a final time into PBS, sealed with foil and imaged with an automated epifluorescence microscopy (PerkinElmer Operetta CLS). Four different fields were imaged per well using ×20 magnification for DAPI and FITC filter sets. Images were quantified using PerkinElmer Harmony software, briefly: apply flatfield correction (basic/advanced) for input images. Use the Find Nuclei building block with channel set at Hoechst to find the nuclei. Use the Find cytoplasm building block with channel set to Alexa 488 to find the cytoplasm. Use select cell region with Channel set at Alexa 488 and region of interest as Nuclei and define outer border at 0 μm and inner at 45 μm to cover complete nuclei. Use select cell region with Channel set at Alexa 488 and region of interest as ring region and define outer border at −5 μm and inner at 0 μm to define a ring around the nucleus. Use the find calculate intensity parameter to calculate intensity of the nuclear region and the ring region. Define results as Number of nuclei and ratio of A/B where A is Intensity of Nuclei and B is intensity of the ring region.

| pEC50 | SMILES |
| --- | --- |
| 5.10 to 5.70 | O=S(=O)(Cc1cccc(F)c1)N1CC2(CCCC2)c2ccccc21 [Compound I-25, 1′-[(3-fluorophenyl)methanesulfonyl]-1′,2′-dihydrospiro[cyclopentane-1,3′-indole]] |
| ≥ 5.70 | CN(C)S(=O)(=O)c1ccc(S(=O)(=O)N2CC3(CCOCC3)c3ccccc32)cc1 [Compound I-69, 4-({1,2-dihydrospiro[indole-3,4′-oxan]-1-yl}sulfonyl)-N,N-dimethylbenzene-1-sulfonamide] |
| 5.00 to 5.10 | Cc1cccc(-n2cc(S(=O)(=O)N3CC4(CCCC4)c4ccccc43)cn2)c1 [Compound I-75, 1′-{[1-(3-methylphenyl)-1H-pyrazol-4-yl]sulfonyl}-1′,2′-dihydrospiro[cyclopentane-1,3′-indole]] |
| ≤ 5.00 | Cc1ccc(CS(=O)(=O)N2CC3(CCCC3)c3ccccc32)cc1 [Compound I-12, 1′-[(4-methylphenyl)methanesulfonyl]-1′,2′-dihydrospiro[cyclopentane-1,3′-indole]] |
| ≥ 5.70 | CS(=O)(=O)c1ccc(S(=O)(=O)N2CC3(CCN(c4ccc(Cl)cc4F)CC3)c3ccccc32)cc1 [Compound I-65, 1′-(4-chloro-2-fluorophenyl)-1-((4-(methylsulfonyl)phenyl)sulfonyl)spiro[indoline-3,4′-piperidine]] |
| ≤ 5.00 | COC(=O)c1ccc(CS(=O)(=O)N2CC3(CCCC3)c3ccccc32)cc1 [Compound I-62, methyl 4-[({1′,2′-dihydrospiro[cyclopentane-1,3′-indol]-1′-yl}sulfonyl)methyl]benzoate] |
| ≤ 5.00 | CN(C)S(=O)(=O)c1ccc(S(=O)(=O)N2CC3(CCCCC3)n3nccc32)cc1 [Compound I-125, 4-({1′,2′-dihydrospiro[cyclohexane-1,3′-pyrazolo[1,5-a]imidazol]-1′-yl}sulfonyl)-N,N-dimethylbenzene-1-sulfonamide] |
| 5.10 to 5.70 | O=S(=O)(c1cccc(C2OCCO2)c1)N1CC2(CCCC2)c2ccccc21 [Compound I-27, 1′-[3-(1,3-dioxolan-2-yl)benzenesulfonyl]-1′,2′-dihydrospiro[cyclopentane-1,3′-indole]] |
| ≤ 5.00 | O=S(=O)(c1cc(C2OCCO2)cs1)N1CC2(CCCC2)c2ccccc21 [Compound I-21, 1′-{[4-(1,3-dioxolan-2-yl)thiophen-2-yl]sulfonyl}-1′,2′-dihydrospiro[cyclopentane-1,3′-indole]] |
| ≤ 5.00 | CN1CCC2(C1)CN(S(=O)(=O)Cc1ccccc1)c1ccccc12 (centres unmarked) [Compound I-88, 1′-methyl-1-phenylmethanesulfonyl-1,2-dihydrospiro[indole-3,3′-pyrrolidine]] |
| ≤ 5.00 | O=S(=O)(c1ccc(C(F)F)cc1)N1CC2(CCCC2)c2ccccc21 [Compound I-28, 1′-[4-(difluoromethyl)benzenesulfonyl]-1′,2′-dihydrospiro[cyclopentane-1,3′-indole]] |
| 5.10 to 5.70 | Cc1cc2n(n1)C1(CCCCC1)CN2S(=O)(=O)c1ccc(S(=O)(=O)N(C)C)cc1 [Compound I-123, N,N-dimethyl-4-({6′-methyl-1′,2′-dihydrospiro[cyclohexane-1,3′-pyrazolo[1,5-a]imidazol]-1′-yl}sulfonyl)benzene-1-sulfonamide] |
| ≤ 5.00 | O=S(=O)(c1ccc(Br)cc1)N1CC2(CCCC2)c2ccccc21 [Compound I-32, 1′-(4-bromobenzenesulfonyl)-1′,2′-dihydrospiro[cyclopentane-1,3′-indole]] |
| 5.10 to 5.70 | O=S(=O)(Cc1cccc(Cl)c1)N1CC2(CCCC2)c2ccccc21 [Compound I-46, 1′-[(3-chlorophenyl)methanesulfonyl]-1′,2′-dihydrospiro[cyclopentane-1,3′-indole]] |
| ≤ 5.00 | O=S(=O)(Cc1ccc(F)cc1)N1CC2(CCCC2)c2ccccc21 [Compound I-30, 1′-[(4-fluorophenyl)methanesulfonyl]-1′,2′-dihydrospiro[cyclopentane-1,3′-indole]] |
| ≤ 5.00 | CN(C)S(=O)(=O)c1ccc(S(=O)(=O)N2CC3(CCN(CC(F)(F)F)CC3)n3nccc32)cc1 [Compound I-144, N,N-dimethyl-4-{[1-(2,2,2-trifluoroethyl)-1′,2′-dihydrospiro[piperidine-4,3′-pyrazolo[1,5-a]imidazol]-1′-yl]sulfonyl}benzene-1-sulfonamide] |
| ≤ 5.00 | COC1Cc2ccc(S(=O)(=O)N3CC4(CCCC4)c4ccccc43)cc2C1 (centres unmarked) [Compound I-8, 1′-[(2-methoxy-2,3-dihydro-1H-inden-5-yl)sulfonyl]-1′,2′-dihydrospiro[cyclopentane-1,3′-indole]] |
| ≤ 5.00 | O=S(=O)(c1ccc(C2CC2)s1)N1CC2(CCCC2)c2ccccc21 [Compound I-33, 1′-[(5-cyclopropylthiophen-2-yl)sulfonyl]-1′,2′-dihydrospiro[cyclopentane-1,3′-indole]] |
| 5.10 to 5.70 | O=S(=O)(Cc1ccc2c(c1)COCC2)N1CC2(CCCC2)c2ccccc21 [Compound I-34, 1′-[(3,4-dihydro-1H-2-benzopyran-7-yl)methanesulfonyl]-1′,2′-dihydrospiro[cyclopentane-1,3′-indole]] |
| 5.10 to 5.70 | O=S(=O)(c1ccc(C2CC2)cc1)N1CC2(CCCC2)c2ccccc21 [Compound I-29, 1′-(4-cyclopropylbenzenesulfonyl)-1′,2′-dihydrospiro[cyclopentane-1,3′-indole]] |
| ≥ 5.70 | O=S(=O)(Cc1ccccc1)N1CC2(CCCCC2)c2ccccc21 [Compound I-121, 1′-(benzylsulfonyl)spiro[cyclohexane-1,3′-indoline]] |
| ≤ 5.00 | O=S(=O)([C@H]1C[C@@H]1c1cccc(F)c1)N1CC2(CCCC2)c2ccccc21 [Compound I-24, 1′{[(1S,2R)-2-(3-fluorophenyl)cyclopropyl]sulfonyl}-1′,2′-dihydrospiro[cyclopentane-1,3′-indole]] |
| 5.00 to 5.10 | COC(C)(C)c1cccc(S(=O)(=O)N2CC3(CCCC3)c3ccccc32)c1 [Compound I-60, 1′-[3-(2-methoxypropan-2-yl)benzenesulfonyl]-1′,2′-dihydrospiro[cyclopentane-1,3′-indole]] |

| SMILES | pEC50 |
| --- | --- |
| CN1CCC2(CC1)CN(S(=O)(=O)c1ccc(S(=O)(=O)N(C)C)cc1)c1ccccc12 [Compound I-84, N,N-dimethyl-4-({1′-methyl-1,2-dihydrospiro[indole-3,4′-piperidin]-1-yl}sulfonyl)benzene-1-sulfonamide] | ≤ 5.00 |

Source: patent US20230416262A1, “TRPML MODULATORS” (Casma Therapeutics, Inc., priority 2020, published 2023)
